Test results from ChEMBL document CHEMBL1152321, “Recent advances in the chemistry and biology of new generation taxoids” (J Nat Prod, 2009).

Legend:
[1] = Cytotoxicity against P-glycoprotein deficient wild type human LCC-6 cells after 72 hrs; format: functional, cell-based; details: LCC-6, 72 h
[2] = Resistance factor, ratio of IC50 for human LCC-6 cells expressing P-glycoprotein to IC50 for P-glycoprotein deficient wild type human LCC-6 cells; format: functional; parameters: reference not given here

Compound	IC50 [1] [nM]	Ratio [2]
CCC(=O)O[C@H]1C(=O)[C@@]2(C)[C@H]([C@H](OC(=O)c3cccc(F)c3)[C@]3(O)C[C@H](OC(=O)[C@H](O)[C@H](CC(C)C)NC(=O)OC(C)(C)C)C(C)=C1C3(C)C)[C@]1(OC(C)=O)CO[C@@H]1C[C@@H]2O	0.4	6
CCC(=O)O[C@H]1C(=O)[C@@]2(C)[C@H]([C@H](OC(=O)c3cccc(N=[N+]=[N-])c3)[C@]3(O)C[C@H](OC(=O)[C@H](O)[C@H](CC(C)C)NC(=O)OC(C)(C)C)C(C)=C1C3(C)C)[C@]1(OC(C)=O)CO[C@@H]1C[C@@H]2O	1.1	
CCC(=O)O[C@H]1C(=O)[C@@]2(C)[C@H]([C@H](OC(=O)c3cccc(OC)c3)[C@]3(O)C[C@H](OC(=O)[C@H](O)[C@@H](NC(=O)OC(C)(C)C)[C@H]4CC4(C)C)C(C)=C1C3(C)C)[C@]1(OC(C)=O)CO[C@@H]1C[C@@H]2O	0.48	
COc1cccc(C(=O)O[C@H]2C(=O)[C@@]3(C)[C@H]([C@H](OC(=O)c4ccccc4)[C@]4(O)C[C@H](OC(=O)[C@H](O)[C@H](C=C(C)C)NC(=O)OC(C)(C)C)C(C)=C2C4(C)C)[C@]2(OC(C)=O)CO[C@@H]2C[C@@H]3O)c1	2.8	1.8
COc1cccc(C(=O)O[C@H]2[C@@H]3[C@]4(OC(C)=O)CO[C@@H]4C[C@H](O)[C@@]3(C)C(=O)[C@H](OC(C)=O)C3=C(C)[C@@H](OC(=O)[C@H](O)[C@H](C=C(C)C)NC(=O)OC(C)(C)C)C[C@]2(O)C3(C)C)c1	0.6	
CC(=O)O[C@@]12CO[C@@H]1C[C@H](O)[C@@]1(C)C(=O)[C@H](OC(=O)CCc3ccccc3)C3=C(C)[C@@H](OC(=O)[C@H](O)[C@H](C=C(C)C)NC(=O)OC(C)(C)C)C[C@@](O)([C@@H](OC(=O)c4ccccc4)[C@H]21)C3(C)C	5.1	6.1
CCC(=O)O[C@H]1C(=O)[C@@]2(C)[C@H]([C@H](OC(=O)c3cccc(F)c3)[C@]3(O)C[C@H](OC(=O)[C@H](O)[C@H](C=C(C)C)NC(=O)OC(C)(C)C)C(C)=C1C3(C)C)[C@]1(OC(C)=O)CO[C@@H]1C[C@@H]2O	0.5	
CC(=O)O[C@H]1C(=O)[C@@]2(C)[C@H]([C@H](OC(=O)c3cccc(C)c3)[C@]3(O)C[C@H](OC(=O)[C@H](O)[C@H](C=C(C)C)NC(=O)OC(C)(C)C)C(C)=C1C3(C)C)[C@]1(OC(C)=O)CO[C@@H]1C[C@@H]2O	1.5	
CC(=O)O[C@@]12CO[C@@H]1C[C@H](O)[C@@]1(C)C(=O)[C@H](OC(=O)c3ccc4ccccc4c3)C3=C(C)[C@@H](OC(=O)[C@H](O)[C@H](C=C(C)C)NC(=O)OC(C)(C)C)C[C@@](O)([C@@H](OC(=O)c4ccccc4)[C@H]21)C3(C)C	6.3	2.4
CCC(=O)O[C@H]1C(=O)[C@@]2(C)[C@H]([C@H](OC(=O)c3cccc(N=[N+]=[N-])c3)[C@]3(O)C[C@H](OC(=O)[C@H](O)[C@H](C=C(C)C)NC(=O)OC(C)(C)C)C(C)=C1C3(C)C)[C@]1(OC(C)=O)CO[C@@H]1C[C@@H]2O	0.9	
CCC(=O)O[C@H]1C(=O)[C@@]2(C)[C@H]([C@H](OC(=O)c3cccc(Cl)c3)[C@]3(O)C[C@H](OC(=O)[C@H](O)[C@H](C=C(C)C)NC(=O)OC(C)(C)C)C(C)=C1C3(C)C)[C@]1(OC(C)=O)CO[C@@H]1C[C@@H]2O	0.8	
C/C=C/[C@H](NC(=O)OC(C)(C)C)[C@@H](O)C(=O)O[C@H]1C[C@@]2(O)[C@@H](OC(=O)c3cccc(OC)c3)[C@@H]3[C@]4(OC(C)=O)CO[C@@H]4C[C@H](O)[C@@]3(C)C(=O)[C@H](OC(=O)CC)C(=C1C)C2(C)C	1.2	
C=Cc1cccc(C(=O)O[C@H]2[C@@H]3[C@]4(OC(C)=O)CO[C@@H]4C[C@H](O)[C@@]3(C)C(=O)[C@H](OC(=O)CC)C3=C(C)[C@@H](OC(=O)[C@H](O)[C@H](C=C(C)C)NC(=O)OC(C)(C)C)C[C@]2(O)C3(C)C)c1	2.9	
